Test results from US4018754A, “Novel polypeptides having ACTH-like action” (Shionogi & Co., Ltd., priority 1974, dated 1977).
Read-outs that look alike come from different tables or passages of the source. Where a SMILES comes first, the peptide text is derived from it. Where no end group is shown, it is not given here. [ ]: non-standard residue; d: D form. Aib = CC(C)(N)C(=O)O

Experiments:
rats [1] = test: Protracted action: time course of plasma 11-OHCS level after i.m. or i.v. injection; type: in vivo; settings: rats 100-120 g, 5 μg/rat intramuscularly or intravenously
Protocol: The protracted action of the present polypeptides, e.g., [Aib^1,Lys^17,18,19 ]--ACTH(1-19)--NH2, was studied using rats weighing 100-120 g. Synthetic human ACTH, Cortrosyn--Z^R (zinc complex suspension of ACTH(1-24)--OH)and [Gly^1 ]--ACTH(1-18)--NH2 were used for comparison. The petides were intramuscularly or intravenously injected into rats at a dose of 5 μg/rat, and then the production of 11-hydroxycorticosteroids (11-OHCS) was determined. Time course of 11-OHCS level in the plasma when the peptides were administered intramuscularly and intravenously is shown in FIG. 2, respectively. […] Cortrosyn-Z is the only ACTH preparation which has been used for therapeutical purpose, though it has rather strong melanocyte stimulating activity (c.f. Table 1). […] In FIG. 2, Cortrosyn-Z (suspension of a zinc complex of ACTH(1-24)--OH) is not shown, because the suspension cannot be used through intravenous route.

hypophysectomized rat [2] = tested on: hypophysectomized rat
Protocol: The adrenal-stimulating activity by the intramuscular administration to hypophysectomized rat was also determined, where a peptide preparation was injected into the thigh muscle and a blood sample was collected from the abdominal aorta 30 minutes after the injection. Throughout the experiment, the USP Corticotropin Reference Standard was used as a standard and the production of 11-hydroxycorticosteroids was determined by the fluorophotometric method of Peterson [J. Biol. Chem. 225 25 (1975)].

hypophysectomized rat [3] = tested on: hypophysectomized rat; remark: listed apart in the source
rats [4] = settings: i.m. for 2 days
Protocol: The effect on adrenal growth and thymus involution was determined in the following manner: peptides were intramuscularly injected into rats weighing 100-150 g at a dose of 20μg and 100 μg/rat/day for 2 days, respectively. The rats were then submitted to autopsy 24 hours after the last injection, and then the adrenal and thymus were weighed respectively.

Protocol for melanocyte: The in vivo melanocyte-stimulating activity was determined according to the method of A. Tanaka described in Endocrinol.

CSCC[C@H](NC(=O)[C@H](CO)NC(=O)[C@H](Cc1ccc(O)cc1)NC(=O)C(C)(C)N)C(=O)N[C@@H](CCC(=O)O)C(=O)N[C@@H](Cc1c[nH]cn1)C(=O)N[C@@H](Cc1ccccc1)C(=O)N[C@@H](CCCNC(=N)N)C(=O)N[C@@H](Cc1c[nH]c2ccccc12)C(=O)NCC(=O)N[C@@H](CCCCN)C(=O)N1CCC[C@H]1C(=O)N[C@H](C(=O)NCC(=O)N[C@@H](CCCCN)C(=O)N[C@@H](CCCCN)C(=O)N[C@@H](CCCCN)C(=O)N[C@@H](CCCCN)C(=O)N[C@@H](CCCCN)C(N)=O)C(C)C [[Aib^1,Lys^17,18,19]-ACTH(1-19)-NH2, Aib--Tyr--Ser--Met--Glu--His--Phe--Arg--Trp--Gly--Lys--Pro--Val--Gly--Lys- -Lys--Lys--Lys--Lys--NH2] (H-[Aib]YSMEHFRWGKPVGKKKKK-NH2)
Protracted adrenal-stimulating action (time course of plasma 11-OHCS level) (rats [1]; Lys^17,18,19 ]--ACTH(1-19)--NH2): very protracted action
Melanocyte-stimulating activity in vivo (b), relative potency (melanocyte): 0.11
Adrenal-stimulating activity i.m. (relative potency) (hypophysectomized rat [2]; rat, in vivo): 7.8
Adrenal-stimulating activity i.v. (relative potency) (hypophysectomized rat [3]; rat, in vivo, iv): 5.7

CSCC[C@H](NC(=O)[C@H](CO)NC(=O)[C@H](Cc1ccc(O)cc1)NC(=O)C(C)(C)N)C(=O)N[C@@H](CCC(=O)O)C(=O)N[C@@H](Cc1c[nH]cn1)C(=O)N[C@@H](Cc1ccccc1)C(=O)N[C@@H](CCCNC(=N)N)C(=O)N[C@@H](Cc1c[nH]c2ccccc12)C(=O)NCC(=O)N[C@@H](CCCCN)C(=O)N1CCC[C@H]1C(=O)N[C@H](C(=O)NCC(=O)N[C@@H](CCCCN)C(=O)N[C@@H](CCCCN)C(=O)N[C@@H](CCCCN)C(=O)N[C@@H](CCCCN)C(=O)N[C@@H](CCCCN)C(=O)N[C@@H](CCCCN)C(N)=O)C(C)C [[Aib^1,Lys^17,18,19,20]-ACTH(1-20)-NH2, Aib--Tyr--Ser--Met--Glu--His--Phe--Arg--Trp--Gly--Lys--Pro--Val--Gly--Lys- -Lys--Lys--Lys--Lys--Lys--NH2] (H-[Aib]YSMEHFRWGKPVGKKKKKK-NH2)
Melanocyte-stimulating activity in vivo (b), relative potency (melanocyte): 0.15
Adrenal-stimulating activity i.m. (relative potency) (hypophysectomized rat [2]; rat, in vivo): 10.7
Adrenal-stimulating activity i.v. (relative potency) (hypophysectomized rat [3]; rat, in vivo, iv): 6.3

CSCC[C@H](NC(=O)[C@H](CO)NC(=O)[C@H](Cc1ccc(O)cc1)NC(=O)C(C)(C)N)C(=O)N[C@@H](CCC(=O)O)C(=O)N[C@@H](Cc1c[nH]cn1)C(=O)N[C@@H](Cc1ccccc1)C(=O)N[C@@H](CCCNC(=N)N)C(=O)N[C@@H](Cc1c[nH]c2ccccc12)C(=O)NCC(=O)N[C@@H](CCCCN)C(=O)N1CCC[C@H]1C(=O)N[C@H](C(=O)NCC(=O)N[C@@H](CCCCN)C(=O)N[C@@H](CCCCN)C(=O)N[C@@H](CCCCN)C(=O)N[C@@H](CCCCN)C(=O)N[C@@H](CCCCN)C(N)=O)C(C)C [[Aib^1, Lys^17,18,19]--ACTH(1-19)-- NH2] (H-[Aib]YSMEHFRWGKPVGKKKKK-NH2)
Protracted adrenal-stimulating action (time course of plasma 11-OHCS level) (rats [1]): protracted to almost the same extent as that produced by Cortrosyn-Z

GYSMEHFRWGKPVGKKRR-NH2 [[Gly^1]-ACTH(1-18)-NH2, [Gly^1]--ACTH(1-18)--NH2, reference compound]
effects on adrenal growth and thymus involution (in words) (rats [4]): very weak
Melanocyte-stimulating activity in vivo (b), relative potency (melanocyte): 0.11
Adrenal-stimulating activity i.m. (relative potency) (hypophysectomized rat [2]; rat, in vivo): 1.0
Adrenal-stimulating activity i.v. (relative potency) (hypophysectomized rat [3]; rat, in vivo, iv): 1.0

CSCC[C@H](NC(=O)[C@H](CO)NC(=O)[C@H](Cc1ccc(O)cc1)NC(=O)C(C)(C)N)C(=O)N[C@@H](CCC(=O)O)C(=O)N[C@@H](Cc1c[nH]cn1)C(=O)N[C@@H](Cc1ccccc1)C(=O)N[C@@H](CCCNC(=N)N)C(=O)N[C@@H](Cc1c[nH]c2ccccc12)C(=O)NCC(=O)N[C@@H](CCCCN)C(=O)N1CCC[C@H]1C(=O)N[C@H](C(=O)NCC(=O)N[C@@H](CCCCN)C(=O)N[C@@H](CCCCN)C(=O)N[C@@H](CCCCN)C(=O)N[C@@H](CCCCN)C(N)=O)C(C)C [[Aib^1,Lys^17,18]-ACTH(1-18)-NH2, [Aib^1,Lys^17,18]--ACTH(1-18)--NH2, reference compound] (H-[Aib]YSMEHFRWGKPVGKKKK-NH2)
Melanocyte-stimulating activity in vivo (b), relative potency (melanocyte): 0.82
Adrenal-stimulating activity i.m. (relative potency) (hypophysectomized rat [2]; rat, in vivo): 9.4
Adrenal-stimulating activity i.v. (relative potency) (hypophysectomized rat [3]; rat, in vivo, iv): 9.3

CSCC[C@H](NC(=O)[C@H](CO)NC(=O)[C@H](Cc1ccc(O)cc1)NC(=O)C(C)(C)N)C(=O)N[C@@H](CCC(=O)O)C(=O)N[C@@H](Cc1c[nH]cn1)C(=O)N[C@@H](Cc1ccccc1)C(=O)N[C@@H](CCCNC(=N)N)C(=O)N[C@@H](Cc1c[nH]c2ccccc12)C(=O)NCC(=O)N[C@@H](CCCCN)C(=O)N1CCC[C@H]1C(=O)N[C@H](C(=O)NCC(=O)N[C@@H](CCCCN)C(=O)N[C@@H](CCCCN)C(=O)N[C@@H](CCCNC(=N)N)C(=O)N[C@@H](CCCNC(=N)N)C(N)=O)C(C)C [[Aib^1]-ACTH(1-18)-NH2, [Aib^1]--ACTH(1-18)--NH2, reference compound] (H-[Aib]YSMEHFRWGKPVGKKRR-NH2)
Melanocyte-stimulating activity in vivo (b), relative potency (melanocyte): 1.00
Adrenal-stimulating activity i.m. (relative potency) (hypophysectomized rat [2]; rat, in vivo): 9.9
Adrenal-stimulating activity i.v. (relative potency) (hypophysectomized rat [3]; rat, in vivo, iv): 4.1

Native ACTH: native corticotropin (ACTH), native hormone used for comparison (SYSMEHFRWGKPVGKKRRPVKVYPNGAEDESAEAFPLEF; Corticotropin; UniProt P01189 138-176, looked up)
effects on adrenal growth and thymus involution (in words) (rats [4]): very weak
Adrenal-stimulating activity i.m. (relative potency) (hypophysectomized rat [2]; hypophysectomized rat, thigh muscle injection, blood sample 30 minutes after injection, USP Corticotropin Reference Standard as standard): 4.0
Adrenal-stimulating activity i.v. (relative potency) (hypophysectomized rat [3]; hypophysectomized rat, femoral vein injection, blood sample 30 minutes after injection, USP Corticotropin Reference Standard as standard): 1.0
